# Test system: rat soleus muscle strips
# Assay: rat soleus muscle assay: D-[14C(U)]-glucose incorporation into muscle glycogen
# Settings: isolated soleus muscle strips of fasted male Wistar rats; peptide 0.71 nM to 237 nM; 120 minutes at 30° C.; read-out: EC50, stimulating the uptake and incorporation of radioactive glucose into muscle glycogen
# Procedure: The soleus muscle was dissected from anaesthetized fasted male Wistar rats (200 g±20 g). Each muscle was then teased longitudinally into 3 equal strips with a final radius of approximately 1.5 mm. An average of six muscle strips were transferred into flasks, containing 10 ml of carbogen-saturated nDMEM and peptide (vesiculin, insulin-II, or commercial human IGF-II (GroPep)) at concentrations ranging from 0.71 nM to 237 nM, before the addition of 10 μl of (0.5 μCi) D-[^14C(U)]-Glucose. Flasks were then incubated in a shaking water bath for 120 minutes at 30° C. under a stream of carbogen.
# After incubation, the muscle strips were removed and blotted dry before being frozen instantly in liquid nitrogen and freeze-dried for 24 hours. The dried weight of muscle strip was recorded before the muscle strips were solubilised in 250 μl of 60% KOH (70° C. water bath for 45 minutes). 750 μl of ice-cold ethanol was then added and the tubes were left overnight at −20° C. to facilitate glycogen precipitation. Tubes were then centrifuged at 9000 g for 15 minutes at 0° C., the supernatant aspirated and the glycogen pellet resuspended in 750 μl of ice-cold ethanol. […] The tubes were mixed thoroughly, and then counted using a Beckman LS 3801 β-counter. The amount of D-[^14C(U)]-Glucose incorporation into muscle glycogen was calculated by dividing the cpm values by the dry muscle weight. […]
row,Substance,EC50 [nM]
1,"human IGF-II: commercial human IGF-II (GroPep), used as a further positive control",48
2,mouse insulin-II: insulin-II co-purified from βTC6-F7 granules as a preparative control,27
